Measured values taken from PMC10859675, “Short‐chain mono‐carboxylates as negative modulators of allosteric transitions in Gloeobacter violaceus ligand‐gated ion channel, and impact of a pre‐β5 strand (Loop Ω) double mutation on crotonate, not butyrate effect” (Physiological Reports, 2024).
pIC50: −log10 of the molar value. Values joined by “and” are separate entries in the source; they are usually repeats but may differ in a detail not shown here. Equal entries are not always repeated. Where two headings read alike, the source gives them in different places.

Legend:
[1] = biological target: T1, WT GLIC (Gloeobacter violaceus, UniProt Q7NDN8); test: Whole-cell patch-clamp, protocol with pre-stimulation at low pHo, WT GLIC expressed in tk-ts13 cells; type: cell-based; settings: for current in the presence of mono-CBX, % of control: 1 mM at pHo 5.0, WT sample of Figure 7, mean; for current in the presence of mono-CBX, % of control (100*I CBX/I CONTROL): 1 mM at pHo 5.0, WT sample of Figures 4 and 5, mean; for activity on GLIC current (NAM effect): 1 mM with pre-stimulation, pHo 5.0; for reversibility of negative modulation (slow components): after compound wash-out; for current in the presence of di-CBX, % of control: 10 mM at pHo 5.0, mean
T1 construct: expressed in transfected cells; host or cells: tk-ts13 cells, GLIC DNA in pMT3 vector
T1 sequence (Q7NDN8 44-359): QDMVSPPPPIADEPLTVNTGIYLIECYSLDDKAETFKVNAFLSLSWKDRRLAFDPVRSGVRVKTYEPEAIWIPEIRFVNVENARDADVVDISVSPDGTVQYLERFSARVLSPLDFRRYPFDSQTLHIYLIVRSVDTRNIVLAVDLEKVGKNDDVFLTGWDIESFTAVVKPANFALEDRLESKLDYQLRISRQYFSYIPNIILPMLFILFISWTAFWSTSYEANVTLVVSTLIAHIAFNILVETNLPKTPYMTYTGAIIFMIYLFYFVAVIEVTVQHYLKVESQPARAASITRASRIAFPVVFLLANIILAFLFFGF
Experimental: We give here the main points and some differences.
All solutions were prepared from the acid forms of the buffers/acido‐basic compounds (BAPTA, HEPES, MES, CBX, etc.). Stock 100 mmol/L (mM) mono‐CBX water solutions were prepared directly at pH 5 (NaOH/HCl), aliquoted and kept at −20°C.
Fit of concentration‐effect curves. For proton activation curves, the peak value (Ipk[pHo]; inward current value at maximal absolute value) within 30 s was considered (y), and a plot against H^+ activity value (x) was fitted with a 3‐parameter Hill equation: y=ymax*1/1+EC50nH/x^nH , giving I max, EC50, and pH50 = −log(EC50). For potentiation/inhibition, data for [percent of control current] in the presence of the compound (y = 100*I CBX/I CONTROL) to [compound concentration value] […] For most compounds are presented: a fit of the mean of data (Graphs), and the mean ± standard deviation (SD) of data from individual cells (values in text).

[2] = biological target: T2, GLIC R133A (Gloeobacter violaceus, UniProt Q7NDN8, R175A); type: cell-based; set-up: expressed in transfected cells; host or cells: tk-ts13 cells, pMT3 vector; settings: 1 mM at pHo 5.0, mean
T2 sequence (Q7NDN8 44-359 R175A): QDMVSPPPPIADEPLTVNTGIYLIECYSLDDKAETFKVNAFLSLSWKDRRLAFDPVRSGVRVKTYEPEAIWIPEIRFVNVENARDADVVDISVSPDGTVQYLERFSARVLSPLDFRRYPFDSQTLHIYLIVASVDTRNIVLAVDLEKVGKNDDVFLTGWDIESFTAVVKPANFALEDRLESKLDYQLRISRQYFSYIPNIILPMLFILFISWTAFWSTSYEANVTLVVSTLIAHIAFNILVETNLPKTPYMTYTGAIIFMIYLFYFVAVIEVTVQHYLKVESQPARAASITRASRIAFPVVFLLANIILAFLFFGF
Experimental: (§1) ACET (Figure 4) and the 4‐carbon compounds BUTYR and CROTON (Figure 5) were tested on the CBX‐pockets single mutants, at 1 mM with pre‐stimulation at pHo 5.0.

[3] = biological target: T3, GLIC N152A (Gloeobacter violaceus, UniProt Q7NDN8, N194A); type: cell-based; settings: 1 mM at pHo 5.0, mean
T3 construct: expressed in transfected cells; host or cells: tk-ts13 cells, pMT3 vector
T3 sequence (Q7NDN8 44-359 N194A): as the sequence (Q7NDN8 44-359 R175A) above, with A132R, N151A counted along it
Text: (§2) Compound modulation of the D86A‐D88A pre‐β5 variant (AA), N152A mutant and WT GLIC, was investigated in the protocol with pre‐stimulation at pHo 5.0 (Figure 7).

[4] = biological target: T4, GLIC D86A‐D88A (Gloeobacter violaceus, UniProt Q7NDN8, D128A/D130A); type: cell-based; settings: 1 mM at pHo 5.0, Figure 7 sample, mean
T4 construct: expressed in transfected cells; host or cells: tk-ts13 cells, pMT3 vector
T4 sequence (Q7NDN8 44-359 D128A/D130A): as the sequence (Q7NDN8 44-359 R175A) above, with D85A, D87A, A132R counted along it
Text: as §2

[5] = biological target: T1, WT GLIC; test: Whole-cell patch-clamp, direct protocol (pHo jump and compound applied simultaneously), WT GLIC in tk-ts13 cells; type: cell-based; settings: 1 mM at pHo 5.0, direct protocol, individual cells; for ratio of peak current values in the presence and in the absence of compound (Ipk[CBX@5.0]/Ipk[pHo 5.0]): first CBX application; for current decay (h) time constant: m^4 h fit
Text: A direct protocol, where a pHo‐jump (from control pHo 7.5) and compound addition are applied simultaneously, was first used to examine the influence of saturated, short‐chain mono‐CBX compounds on low pHo‐induced GLIC current (Figure 1a).

[6] = biological target: T5, GLIC R77A (Gloeobacter violaceus, UniProt Q7NDN8, R119A); type: cell-based; settings: 1 mM at pHo 5.0, mean
T5 construct: expressed in transfected cells; host or cells: tk-ts13 cells, pMT3 vector
T5 sequence (Q7NDN8 44-359 R119A): as the sequence (Q7NDN8 44-359 R175A) above, with R76A, A132R counted along it
Experimental: as §1

[7] = biological target: T6, GLIC R105A (Gloeobacter violaceus, UniProt Q7NDN8, R147A); type: cell-based; settings: 1 mM at pHo 5.0, mean
T6 construct: expressed in transfected cells; host or cells: tk-ts13 cells, pMT3 vector
T6 sequence (Q7NDN8 44-359 R147A): as the sequence (Q7NDN8 44-359 R175A) above, with R104A, A132R counted along it
Experimental: as §1

[8] = biological target: T7, GLIC E104Q (Gloeobacter violaceus, UniProt Q7NDN8, E146Q); type: cell-based; settings: 1 mM at pHo 5.0, mean
T7 construct: expressed in transfected cells; host or cells: tk-ts13 cells, pMT3 vector
T7 sequence (Q7NDN8 44-359 E146Q): as the sequence (Q7NDN8 44-359 R175A) above, with E103Q, A132R counted along it
Experimental: as §1

[9] = biological target: T8, GLIC Y102A (Gloeobacter violaceus, UniProt Q7NDN8, Y144A); type: cell-based; settings: 1 mM at pHo 5.0, mean
T8 construct: expressed in transfected cells; host or cells: tk-ts13 cells, pMT3 vector
T8 sequence (Q7NDN8 44-359 Y144A): as the sequence (Q7NDN8 44-359 R175A) above, with Y101A, A132R counted along it
Experimental: as §1

[10] = biological target: T9, GLIC E177A (Gloeobacter violaceus, UniProt Q7NDN8, E219A); type: cell-based; settings: 1 mM at pHo 5.0, mean
T9 construct: expressed in transfected cells; host or cells: tk-ts13 cells, pMT3 vector
T9 sequence (Q7NDN8 44-359 E219A): as the sequence (Q7NDN8 44-359 R175A) above, with A132R, E176A counted along it
Experimental: as §1

[11] = biological target: T10, GLIC E181A (Gloeobacter violaceus, UniProt Q7NDN8, E223A); type: cell-based; settings: 1 mM at pHo 5.0, versus WT GLIC
T10 construct: expressed in transfected cells; host or cells: tk-ts13 cells, pMT3 vector
T10 sequence (Q7NDN8 44-359 E223A): as the sequence (Q7NDN8 44-359 R175A) above, with A132R, E180A counted along it
Experimental: as §1

[12] = biological target: T2, GLIC R133A; test: Whole-cell patch-clamp, direct protocol, GLIC R133A
[13] = biological target: GLIC AA‐N152A (Gloeobacter violaceus, UniProt Q7NDN8, D128A/D130A/N194A); test: Whole-cell patch-clamp with pre-stimulation, GLIC AA-N152A; settings: CROTON 1 mM at pHo 5.0, single exponential fit
GLIC AA‐N152A, sequence (Q7NDN8 44-359 D128A/D130A/N194A): as the sequence (Q7NDN8 44-359 R175A) above, with D85A, D87A, A132R, N151A counted along it
Experimental: (§3) Nuclear injection of DNA was done on the day of reception of oocytes. […] Transfection was done within 24 h after cell seeding, using the DNA‐calcium phosphate co‐precipitation method. GFP‐positive cells were used for electrophysiology 1–2 days after transfection (tk‐ts13 cells), or 1–3 days after nuclear injection (oocytes). A mixture of DNAs coding for GLIC and GFP in separate pMT3 vectors was used, with amounts of [2 + 0.2] μg per 35 mm dish for transfections, or [0.04 + 0.02] g/L in water for injections.
(§4) The intracellular pipette solution was composed of (in mM): CsCl 150, MgCl2 1, HEPES 10, BAPTA 10, CsOH to pH 7.3. […] Lower pH values were reached by adding to this solution HCl 2 M in water (and more pH 7.5 solution to return pH up if necessary). […] A 3 M KCl, 5 g/L agar bridge was used to connect the reference electrode to the dish solution. […] Electric current flowing through the membrane from extracellular to intracellular face (inward current) is counted negative, and represented downwards in the figures. […]
(§5) Positive/negative modulation was evaluated as current in the presence of the compound, in percent of the control GLIC current value measured immediately before compound application (with a correction for GLIC current decay only for small inhibitions). […]

[14] = tested on: GLIC [AA + CBX‐pocket] triple mutants; test: Whole-cell patch-clamp with pre-stimulation, [AA + CBX-pocket] triple mutants; settings: 1 mM at pHo 5.0, compared to AA double mutant
Experimental: as §3, §4, §5

[15] = 5 or 10 mM, pre-stimulation at pHo 5.0, 2–5 cells each
[16] = pHo 5.5, mean ± SD, read-out: IC50 (from individual cells)
[17] = pHo 5.0, mean ± SD, read-out: IC50 (from individual cells)
[18] = SUCCIN 10 mM at pHo 5.0, without ACET, after ACET 1 mM 50 s, one cell

C[C@H](N)C(=O)O [(L)‐alanine]
effect on GLIC current [1, 15]: no effect

CC(=O)O [ACET, Ethanoic acid]
current in the presence of mono-CBX, % of control [2]: 22.7 % of control
current in the presence of mono-CBX, % of control [3]: 9.7 % of control
current in the presence of mono-CBX, % of control [4]: 14.6 % of control
current in the presence of mono-CBX, % of control [1]: 12.2 % of control
current in the presence of mono-CBX, % of control (100*I CBX/I CONTROL) [1]: 12.2 % of control
activity on GLIC current (NAM effect) [1]: active
GLIC current in the presence of ACET, % of control ([1]; ACET 1 mM at pHo 5.0, 50-180 s application, individual cells): 17 % of control and 6.6 % of control and 5.5 % of control and 17.2 % of control and 11.3 % of control
reversibility of negative modulation (slow components) [1]: 3 to 10 min
slope parameter (fit of the mean value) ([1]; pHo 5.5, 10 cells): 1.6
pIC50 ([1]; pHo 5.5, 10 cells, read-out: IC50 (sigmoid fit of the mean value)): 3.87
pIC50 [1, 16]: 3.89
ratio of peak current values in the presence and in the absence of compound (Ipk[CBX@5.0]/Ipk[pHo 5.0]) [5]: 0.400 and 0.424 and 0.533 and 0.575
current decay (h) time constant [5]: 2.90 s and 3.13 s and 3.33 s and 5.62 s
current in the presence of mono-CBX, % of control [6]: 71.4 % of control
current in the presence of mono-CBX, % of control [7]: 17.1 % of control
current in the presence of mono-CBX, % of control [8]: 47.6 % of control
current in the presence of mono-CBX, % of control [9]: 16.1 % of control
current in the presence of mono-CBX, % of control [10]: 14.9 % of control
impact of the E181A substitution on the NAM effect [11]: no impact

CCCC(=O)O [BUTYR, Butanoic acid]
current in the presence of mono-CBX, % of control [1]: 13.6 % of control
current in the presence of mono-CBX, % of control (100*I CBX/I CONTROL) [1]: 10.3 % of control
pIC50 [1, 17]: 3.66
slope parameter nH (from individual cells) ([1]; pHo 5.5, mean ± SD): 1.5
pIC50 [1, 16]: 3.82
peak current inhibition [12]: almost fully abolished
ratio of peak current values in the presence and in the absence of compound (Ipk[CBX@5.0]/Ipk[pHo 5.0]) [5]: 0.257 and 0.332
current decay (h) time constant [5]: 0.541 s and 0.304 s
impact of the E181A substitution on the NAM effect [11]: no impact

O=C(O)/C=C/c1ccc(O)c(O)c1 [CAFFE, caffeic acid]
current in the presence of CAFFE, % of control ([1]; 0.1 mM at pHo 5.0, mean): 17.4 % of control

C/C=C/C(=O)O [CROTON, Butenoic acid]
decay constant tau of PAM ratio versus control current amplitude [13]: 800 nA
current in the presence of mono-CBX, % of control [1]: 13.6 % of control
current in the presence of mono-CBX, % of control (100*I CBX/I CONTROL) [1]: 11.9 % of control
pIC50 [1, 17]: 3.72
peak current inhibition [12]: almost fully abolished
ratio of peak current values in the presence and in the absence of compound (Ipk[CBX@5.0]/Ipk[pHo 5.0]) [5]: 0.228 and 0.244
current decay (h) time constant [5]: 0.695 s and 0.583 s
CROTON PAM effect after adding a binding pocket mutation to AA (excluding AA‐N152A) [14]: fully abolished
impact of the E181A substitution on the NAM effect [11]: no impact

CC(O)C(=O)O (stereo not drawn) [DL‐lactate]
effect on GLIC current [1, 15]: no effect

O=C(O)/C=C/C(=O)O [FUMAR, (E)‐but‐2‐enedioic acid]
current in the presence of di-CBX, % of control [1]: 194 % of control

NCCCC(=O)O [GABA, γ‐amino butyrate]
effect on GLIC current [1, 15]: no effect

CCC(=O)O [PROPION, Propanoic acid]
activity on GLIC current (NAM effect) [1]: active
reversibility of negative modulation (slow components) [1]: 3 to 10 min
slope parameter nH (from individual cells) ([1]; pHo 5.5, mean ± SD): 1.1
pIC50 [1, 16]: 3.69
ratio of peak current values in the presence and in the absence of compound (Ipk[CBX@5.0]/Ipk[pHo 5.0]) [5]: 0.380
current decay (h) time constant [5]: 1.47 s

O=C(O)CCC(=O)O [SUCCIN, Butanedioic acid]
current in the presence of di-CBX, % of control [1]: 142 % of control
GLIC current with SUCCIN after ACET plateau, % of control current recorded immediately before ACET [1, 18]: 143 % of control
GLIC current with SUCCIN after ACET plateau, % of current recorded in the presence of ACET [1, 18]: 2170 % of ACET current
peak SUCCIN current (co-application with ACET), % of control current recorded immediately before ACET ([1]; SUCCIN 10 mM co-applied with ACET 1 mM, pHo 5.0, after 90, 120, 180 s of ACET, individual cells): 132 % of control and 28 % of control and 44 % of control
peak SUCCIN current (co-application with ACET), % of ACET current ([1]; SUCCIN 10 mM co-applied with ACET 1 mM, pHo 5.0, individual cells): 753 % of ACET current and 505 % of ACET current and 392 % of ACET current

CCCCC(=O)O [VALER, Pentanoic acid]
pIC50 ([1]; IC50 (from individual cells), pHo 5.0, mean ± SD): 3.54

O=C(O)CC(O)(CC(=O)O)C(=O)O [citrate]
effect on GLIC current ([1]; citrate used as buffer, conditions not given): no effect

NCC(=O)O [glycine]
effect on GLIC current [1, 15]: no effect

CC(=O)C(=O)O [pyruvate]
effect on GLIC current [1, 15]: no effect

NCCC(=O)O [β‐alanine]
effect on GLIC current [1, 15]: no effect

phosphate
effect on GLIC activity ([1]; 1 and 10 mM at pH 5.0, extracellular solution without CaCl2, n = 4 cells): no effect
